This is an account of results in patent US6894059B1, “Compounds and methods for treatment of asthma, allergy and inflammatory disorders” (UCB S.A., priority 1999, dated 2005).

Broadly, the IC50 is the concentration needed to halve the response being measured. Broadly, the Ki is the dissociation constant of the complex between target and ligand, obtained from inhibition or displacement.

For experiment [1], the target named is T1, human 5-lipoxygenase enzyme (Homo sapiens, UniProt P09917).
T1 construct: Blood is drawn from normal human volunteers into tubes containing heparin; endogenous in cells; host or cells: human whole blood, heparinized, stimulated with A23187
T1 sequence (P09917 1-674): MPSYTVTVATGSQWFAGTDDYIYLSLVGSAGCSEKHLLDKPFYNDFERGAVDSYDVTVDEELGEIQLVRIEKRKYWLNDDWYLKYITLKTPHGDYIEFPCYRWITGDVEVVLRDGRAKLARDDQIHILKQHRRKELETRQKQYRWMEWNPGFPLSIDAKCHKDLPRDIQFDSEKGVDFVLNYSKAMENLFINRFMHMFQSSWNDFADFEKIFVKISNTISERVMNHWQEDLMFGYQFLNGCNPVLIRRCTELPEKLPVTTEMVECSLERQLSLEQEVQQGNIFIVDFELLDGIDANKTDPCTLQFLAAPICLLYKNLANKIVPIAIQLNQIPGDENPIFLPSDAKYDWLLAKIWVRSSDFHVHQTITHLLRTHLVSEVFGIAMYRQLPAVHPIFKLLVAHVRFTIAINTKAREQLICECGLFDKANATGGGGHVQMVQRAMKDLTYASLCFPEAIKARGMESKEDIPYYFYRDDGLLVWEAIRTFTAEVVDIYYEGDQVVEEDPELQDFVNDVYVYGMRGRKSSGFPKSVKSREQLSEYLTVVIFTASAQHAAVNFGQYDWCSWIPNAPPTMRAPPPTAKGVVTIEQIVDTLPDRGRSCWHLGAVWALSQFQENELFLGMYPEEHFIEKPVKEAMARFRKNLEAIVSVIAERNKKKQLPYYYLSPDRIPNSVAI
Briefly: Inhibition of LTB4 production in human whole blood stimulated with calcium ionophore A23187. The experiment is classed as cell-based. The note with it: A23187 50 μM, LTB4 by EIA, read-out: HWB IC50. The method, then: This assay examines the ability of a compound to inhibit leukotriene B4 Production from human blood stimulated with calcium ionophore. As this production of leukotriene B4 is mediated via the activation of the 5-lipoxygenase enzyme, this assay is predictive of a compound's ability to inhibit the human 5-lipoxygenase enzyme.
The procedure for the assay is as follows. Blood is drawn from normal human volunteers into tubes containing heparin. 1 ml of the heparinized blood is pipetted into a 1.5 ml polypropylene tube. To this sample is added either different concentrations of the test compound (5 μl) dissolved in DMSO or 5 μl of DMSO as a vehicle control. These samples are incubated in a water bath, at […] for 15 min. […] From this a percent inhibition of LTB4 production by each concentration of test compound is calculated and the IC50 for inhibition of LTB4 production for each test compound is determined.

Experiment [2] concerns the target T2, human cloned H1 receptor (Homo sapiens, UniProt P35367).
T2 construct: expressed in transfected cells; host or cells: CHO-K1
Briefly: CHO-K1 H1R binding assay (3H-pyrilamine displacement). The note with it: CHO-K1 membranes, 3H-pyrilamine 2 nM, 3 hours at 37° C.; read-out: CHOH1 KI.
Experimental: CHO—K1 cells expressing the human cloned H1 receptor are grown to confluence in tissue culture dishes. Cells are harvested using D-PBS buffer (JRH Biosciences), kept at 4° C., centrifuging to pellet cells (4° C., 500 g, 10 min). The final cell pellet is homogenized and resuspended using Tris/sucrose buffer (20 mM Tris, 250 mM sucrose, pH 74 at 4° C. Aliquots of the membrane preparation are stored at −70° C.
On the day of assay, the membrane preparation is thawed and centrifuged (TLA100.3 rotor, 4° C., 15 min, 23,000 rpm). The pellet is resuspended in Tris/sucrose buffer initially and then diluted further as necessary using assay buffer A (50 mM Na/KPO4, 2 mM MgCl2, 0.5% (w/v) BSA, pH 7.5).
For the binding assay, the membrane preparation, test compound and ^3H-pyrilamine (2 nM final) in buffer A with 1% (v/v) DMSO final are incubated in a 96-well polypropylene plate for 3 hours at 37° C. Non-specific binding is determined in the presence of 10 μM pyrilamine. A 96-well harvester (Packard) is used to harvest the 96-well plate onto a GF/B filter plate pre-treated with 0.1% (v/v) PEI. The plate is counted in a Packard Topcounter after adding Microscint 20 (Packard) scintillation fluid. The Ki for each compound at the histamine H1 receptor is then calculated from these counts.

T2 sequence (P35367 whole entry): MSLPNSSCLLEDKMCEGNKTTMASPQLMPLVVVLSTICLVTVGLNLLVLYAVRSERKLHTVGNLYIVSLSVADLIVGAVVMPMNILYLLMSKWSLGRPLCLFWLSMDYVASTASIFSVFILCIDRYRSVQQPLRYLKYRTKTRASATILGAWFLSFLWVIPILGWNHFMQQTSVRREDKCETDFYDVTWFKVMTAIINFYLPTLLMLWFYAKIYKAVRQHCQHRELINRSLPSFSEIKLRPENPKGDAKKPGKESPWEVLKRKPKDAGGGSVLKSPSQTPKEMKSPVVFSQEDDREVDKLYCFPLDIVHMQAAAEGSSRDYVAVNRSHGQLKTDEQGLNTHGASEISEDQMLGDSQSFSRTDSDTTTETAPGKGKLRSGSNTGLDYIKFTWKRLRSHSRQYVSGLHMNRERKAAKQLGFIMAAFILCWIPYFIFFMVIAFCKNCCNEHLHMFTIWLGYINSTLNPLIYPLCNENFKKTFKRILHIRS

For `NC(=O)N(O)CCOCCN1CCN([C@@H](c2ccccc2)c2ccc(Cl)cc2)CC1` [Compound 22, N-[2-(2-{4-[(1R)(4-chlorophenyl)phenylmethyl]piperazinyl}ethoxy)ethyl] amino-N-hydroxyamide], in experiment [1], the IC50 was 1470 nM. The Ki in experiment [2] was 8 nM.
In the case of `C[C@@H](c1ccc(OCCN2CCN(C(c3ccc(F)cc3)c3ccc(F)cc3)CC2)cc1)N(O)C(N)=O` (racemic) [Compound 11, amino-N-{[4-(2-{4-[bis(4-fluorophenyl)methyl]piperazinyl}ethoxy)phenyl]ethyl}-N-hydroxyamide], in experiment [1], the IC50 came to 3630 nM. Moreover, in experiment [2], the Ki worked out at 130 nM.
